Assay results published in US20240408169A1 (priority 2023, published 2024).
Where two headings read alike, the source gives them in different places. *1 amine or outer side, *2 acyl side, *3 side chain or, on linkers, in order; H or OH if unused. Where a SMILES comes first, the peptide text is derived from it. Bridges are numbered along the chain shown (N, C = ends). [ ]: non-standard residue; d: D form. The star is where a group is joined. X127 = CN([C@@H](Cc1cc(F)ccc1-c1cnn(S(=O)(=O)C2CC2)c1)C(=O)[*:2])[*:1]; X153 = CN([C@@H](Cc1cc(F)ccc1-c1cnn(C2CCOCC2)c1)C(=O)[*:2])[*:1]; X208 = CN([C@@H](Cc1cc(F)ccc1-c1cnn(CC(F)F)c1)C(=O)[*:2])[*:1]; NMehhhLys(Me) = CN([C@@H](CCCCCCCN(C)[*:3])C(=O)[*:2])[*:1]; X207 = CN([C@@H](Cc1cc(F)ccc1-c1cn(C)cn1)C(=O)[*:2])[*:1]; Cyclobutanecarbonyl(1-CF3) = O=C(C1(C(F)(F)F)CCC1)*; cBuCO(3,3-F2-1-CF3) = O=C(C1(C(F)(F)F)CC(F)(F)C1)*; X133 = Cc1ncc(Cl)cc1C[C@@H](C(=O)[*:2])N(C)[*:1]; X4 = Cc1ccc(Cl)cc1C[C@@H](C(=O)[*:2])N(C)[*:1]; Pro(trans-4-F) = O=C(O)[C@@H]1C[C@@H](F)CN1; Gly(cPr) = N[C@H](C(=O)O)C1CC1

Tests used:
CyclinE1/CDK2 = biological target: T1, CyclinE1/CDK2 (Homo sapiens, UniProt P24864); test: Fluorescence Polarization (FP) competitive binding assay, Cyclin E1/Cdk2;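 also: readings taken after two-hour equilibration at room temperature in HEPES buffer with NaCl, DTT, NP-40 and BSA, IC50 fitted from eight-concentration serial dilution series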
T1 construct: purchased Eurofins, discovery 14-475

OVCAR3 cells = test: MTT proliferation assay, OVCAR3; format: cell-based; details: 5 days compound exposure, 1:3 serial dilution starting at 10 μM;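 also: compound given as an 8- or 10-point series, one day after plating, with exposure covering roughly 3-4 cell doublings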
CyclinA2/CDK2 = biological target: T2, CyclinA2/CDK2 (Homo sapiens, UniProt P20248); test: Fluorescence Polarization (FP) competitive binding assay, Cyclin A2/Cdk2;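 also: plates equilibrated two hours at room temperature before polarization reading, IC50 fitted from eight-concentration compound titration curves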
T2 construct: purchased CRELUX Protein Services

CyclinB1/CDK1 = biological target: T3, CyclinB1/CDK1 (Homo sapiens, UniProt P14635); test: Fluorescence Polarization (FP) competitive binding assay, Cyclin B1/Cdk1;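 also: fluorescence polarization read after equilibration at room temperature, with IC50 taken from serially diluted dose-response curves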
T3 construct: purchased Eurofins, discovery 14-450

NCI-H1048 cells = test: MTT proliferation assay, NCI-H1048; format: cell-based; details: 5 days compound exposure, 1:3 serial dilution starting at 10 μM;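 also: Dose-response in 96-well plates over 8 or 10 concentration points, with exposure spanning 3-4 cell doublings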
[1] = 10 nM Cyclin E1/Cdk2, 2 nM FAM probe, average of 2-3 independent experiments, read-out: Cyclin E FP IC50
[2] = 8 nM Cyclin A2/Cdk2, 2 nM FAM probe, average of 2-3 independent experiments, read-out: Cyclin A FP IC50
[3] = 10 nM Cyclin B1/Cdk1, 2 nM FAM probe; average of 2-3 independent experiments; read-out: Cyclin B FP IC50

Compound	IC50 (CyclinE1/CDK2; [1]) [nM]	GI50 (OVCAR3 cells) [nM]	IC50 (CyclinA2/CDK2; [2]) [nM]	IC50 (CyclinB1/CDK1; [3]) [nM]	GI50 (NCI-H1048 cells) [nM]	IC50 (CyclinE1/CDK2) [nM]	IC50 (CyclinA2/CDK2) [nM]	IC50 (CyclinB1/CDK1; read-out: Cyclin B FP IC50; 10 nM Cyclin B1/Cdk1, 2 nM FAM probe; average of 2-3 independent experiments) [nM]
CC(C)C[C@@H]1NC(=O)[C@@H](N(C)C(=O)[C@@H](NC(=O)[C@@H]2C[C@@H](F)CN2C(=O)C2(C(F)(F)F)CC(F)(F)C2)C2CC2)CCCCCCCN(C)C(=O)[C@H](Cc2cc(F)ccc2-c2cn(C)cn2)N(C)C1=O [Example 164] ({cBuCO(3,3-F2-1-CF3)}-[Pro(trans-4-F)][Gly(cPr)][NMehhhLys(Me)]L[X207]; lactam 3-C)	930	30	70	20	30	–	–	–
CC(C)C[C@@H]1NC(=O)[C@@H](N(C)C(=O)[C@@H](NC(=O)[C@@H]2C[C@@H](F)CN2C(=O)C2(C(F)(F)F)CCC2)C2CC2)CCCCCCCN(C)C(=O)[C@H](Cc2cc(F)ccc2-c2cnn(CC(F)F)c2)N(C)C1=O [Example 92] ({Cyclobutanecarbonyl(1-CF3)}-[Pro(trans-4-F)][Gly(cPr)][NMehhhLys(Me)]L[X208]; lactam 3-C)	100	10	20	20	10	–	–	–
CC(C)C[C@@H]1NC(=O)[C@@H](N(C)C(=O)[C@@H](NC(=O)[C@@H]2C[C@@H](F)CN2C(=O)C2(C(F)(F)F)CCC2)C2CC2)CC=CCCCCNC(=O)[C@H](Cc2cc(F)cnc2OC2CC2)N(C)C1=O [Example 132]	450	380	710	20	570	–	–	–
Cc1ncc(Cl)cc1C[C@H]1C(=O)N(C)CCCCCCC[C@H](N(C)C(=O)[C@@H](NC(=O)[C@@H]2C[C@@H](F)CN2C(=O)C2(C(F)(F)F)CC(F)(F)C2)C2CC2)C(=O)N[C@@H](CC(C)C)C(=O)N1C [Example 322] ({cBuCO(3,3-F2-1-CF3)}-[Pro(trans-4-F)][Gly(cPr)][NMehhhLys(Me)]L[X133]; lactam 3-C)	530	60	80	20	30	–	–	–
CC(C)C[C@@H]1NC(=O)[C@@H](N(C)C(=O)[C@@H](NC(=O)[C@@H]2C[C@@H](F)CN2C(=O)C2(C(F)(F)F)CC(F)(F)C2)C2CC2)CCCCCCCN(C)C(=O)[C@H](Cc2cc(F)ccc2-c2cnn(C3CCOCC3)c2)N(C)C1=O [Example 93] ({cBuCO(3,3-F2-1-CF3)}-[Pro(trans-4-F)][Gly(cPr)][NMehhhLys(Me)]L[X153]; lactam 3-C)	140	10	20	20	10	–	–	–
CC(C)C[C@@H]1NC(=O)[C@@H](N(C)C(=O)[C@@H](NC(=O)[C@@H]2C[C@@H](F)CN2C(=O)C2(C(F)(F)F)CC(F)(F)C2)C2CC2)CCCCCCCN(C)C(=O)[C@H](Cc2cc(F)ccc2-c2cnn(S(=O)(=O)C3CC3)c2)N(C)C1=O [Example 252] ({cBuCO(3,3-F2-1-CF3)}-[Pro(trans-4-F)][Gly(cPr)][NMehhhLys(Me)]L[X127]; lactam 3-C)	–	20	–	–	10	380	30	20
CC(C)C[C@@H]1NC(=O)[C@@H](N(C)C(=O)[C@@H](NC(=O)[C@@H]2C[C@@H](F)CN2C(=O)C2(C(F)(F)F)CC(F)(F)C2)C2CC2)CC=CCCCCN(C)C(=O)[C@H](Cc2cc(Cl)ccc2Oc2ncccn2)N(C)C1=O [Example 153]	1000	140	470	20	110	–	–	–
CC(=O)N1CC=C(c2ccc(Cl)cc2C[C@H]2C(=O)N(C)CCCCCC[C@H](N(C)C(=O)[C@@H](NC(=O)[C@@H]3C[C@@H](F)CN3C(=O)C3(C(F)(F)F)CC(F)(F)C3)C3CC3)C(=O)N[C@@H](CC(C)C)C(=O)N2C)CC1 [Example 74]	3620	170	50	20	110	–	–	–
CC(C)C[C@@H]1NC(=O)[C@@H](N(C)C(=O)[C@@H](NC(=O)[C@@H]2C[C@@H](F)CN2C(=O)C2(C(F)(F)F)CC(F)(F)C2)C2CC2)CC=CCCCCNC(=O)[C@H](Cc2cc(Cl)ccc2-c2cnn(CCO)c2)N(C)C1=O [Example 28]	740	170	40	20	80	–	–	–
Cc1ccc(Cl)cc1C[C@H]1C(=O)N(C)CCCCCCC[C@H](N(C)C(=O)[C@@H](NC(=O)[C@@H]2C[C@@H](F)CN2C(=O)C2(C(F)(F)F)CC(F)(F)C2)C2CC2)C(=O)N[C@@H](CC(C)C)C(=O)N1C [Example 263] ({cBuCO(3,3-F2-1-CF3)}-[Pro(trans-4-F)][Gly(cPr)][NMehhhLys(Me)]L[X4]; lactam 3-C)	200	40	30	20	30	–	–	–
